# Measurements published in paper PMC7287882, “Dual miRNases for Triple Incision of miRNA Target: Design Concept and Catalytic Performance” (Molecules, 2020).
# What was measured:
# Format in all cases: biochemical
# miR-17 = assay: Ribonuclease activity assay, cleavage of miR-17; conditions: miRNA 1 µM, DC 20 µM, 37 °C
# Protocol: (§1) The ribonuclease activity of DCs was studied under two different buffer conditions: buffer (1) contained 50 mM Tris-HCl, pH 7.0, 200 mM KCl, 1 mM EDTA, which imitates intracellular conditions (e.g., pH and potassium ions concentration) and was used in a number of studies previously; and buffer (2) contained 20 mM Tris-HCl, pH 7.8, 40 mM KCl, 8 mM MgCl2, 1 mM DTT, 0.02 mg/mL BSA, which is recommended for in vitro reactions with RNase H (Figure 3 and Figure 4).
# (§2) Figure 3 Kinetics of cleavage of 5′-[^32P]-labeled miR-17, miR-18a, miR-155, miR-21 and miR-21_1 by corresponding DCs in the buffer (1), containing 50 mM Tris-HCl, pH 7.0, 200 mM KCl and 1 mM EDTA. (a–e) Radioautographs of 18% denaturing PAAG showing the cleavage products of miR-17, miR-18a, miR-155, miR-21 and miR-21_1, respectively. miRNA (1 µM) and corresponding DC (20 µM) were incubated at 37 °C for 72 h. Lanes Im and T1—imidazole ladder and partial RNA digestion with RNase T1, respectively; control–miRNA was incubated in the absence of the conjugate. The incubation time (in hours) is show at the top. SS gap–single-stranded region of miRNA formed upon hybridization with DC; (f) Kinetics of miRNAs cleavage by DCs depending on the incubation time. Data are presented as mean ± s.e.
# (§3) Figure 4 Kinetics of cleavage of 5′-[^32P]-labeled miR-17, miR-18a, miR-155, miR-21, and miR-21_1 by corresponding DCs in the buffer (2), containing 20 mM Tris-HCl, pH 7.8, 40 mM KCl, 8 mM MgCl2, 1 mM DTT, 0.02 mg/mL BSA. (a–e) Radioautographs of 18% denaturing PAAG showing the cleavage products of miR-17, miR-18a, miR-155, miR-21 and miR-21_1, respectively. miRNA (1 µM) and corresponding DC (20 µM) were incubated at 37 °C for 72 h. Lanes Im and T1–imidazole ladder and partial RNA digestion with RNase T1, respectively; control–miRNA was incubated in the absence of the conjugate. The incubation time (in hours) is shown at the top. SS gap–single-stranded region of miRNA formed upon hybridization with DC; (f) Kinetics of miRNAs cleavage by DCs. Data are presented as mean ± s.e.
# (§4) The reaction mixture (10 µL) contained 800 cpm (Cherenkov’s counting) of [^32P]-miRNA, 1 μM unlabeled miRNA, one of the conjugates at a concentration 10 or 20 μM and one of the buffers: 50 mM Tris-HCl, pH 7.0, 200 mM KCl, 1 mM EDTA–buffer (1) or 20 mM Tris-HCl, pH 7.8, 40 mM KCl, 8 mM MgCl2, 1 mM DTT, 0.02 mg/mL BSA–buffer (2). The mixture was incubated at 37 °C for 0–72 h and quenched by precipitation of RNA with 2% LiClO4 in acetone (90 µL). RNA was collected by centrifugation and dissolved in loading buffer (8 M urea, 0.025% bromophenol blue, 0.025% xylene cyanol). RNA cleavage products were analyzed in 18% PAAG/8M urea using TBE (100 mM Tris-borate, pH 8.3, 2 mM EDTA) as running buffer. To identify cleavage sites, an imidazole and T1-ladders produced by partial RNA cleavage with 2 M imidazole buffer (pH 7.0) and with RNase T1 [68], respectively, were run in parallel. To obtain quantitative data, gels were dried and analyzed using Molecular Imager FX. The total extent of RNA cleavage and the extent of RNA cleavage at each individual site were determined by using Quantity One software v.4.1 (Bio-Rad, Hercules, CA, USA).
# miR-18a = assay: Ribonuclease activity assay, cleavage of miR-18a; conditions: miRNA 1 µM, DC 20 µM, 37 °C
# Protocol: as §1, §2, §3, §4
# miR-21 = assay: Ribonuclease activity assay, cleavage of miR-21; conditions: buffer (2) 20 mM Tris-HCl pH 7.8, 40 mM KCl, 8 mM MgCl2, 1 mM DTT, 0.02 mg/mL BSA, miRNA 1 µM, DC 20 µM, 37 °C
# Protocol: as §1, §2, §3, §4
# [1] = buffer (1) 50 mM Tris-HCl pH 7.0, 200 mM KCl, 1 mM EDTA, 2 h
# [2] = buffer (1) 50 mM Tris-HCl pH 7.0, 200 mM KCl, 1 mM EDTA, 6 h
# [3] = buffer (1) 50 mM Tris-HCl pH 7.0, 200 mM KCl, 1 mM EDTA, 24 h
# [4] = buffer (1) 50 mM Tris-HCl pH 7.0, 200 mM KCl, 1 mM EDTA, 48 h
# [5] = buffer (1) 50 mM Tris-HCl pH 7.0, 200 mM KCl, 1 mM EDTA, 72 h
# [6] = buffer (2) 20 mM Tris-HCl pH 7.8, 40 mM KCl, 8 mM MgCl2, 1 mM DTT, 0.02 mg/mL BSA, 2 h
# [7] = buffer (2) 20 mM Tris-HCl pH 7.8, 40 mM KCl, 8 mM MgCl2, 1 mM DTT, 0.02 mg/mL BSA, 6 h
# [8] = buffer (2) 20 mM Tris-HCl pH 7.8, 40 mM KCl, 8 mM MgCl2, 1 mM DTT, 0.02 mg/mL BSA, 24 h
# [9] = buffer (2) 20 mM Tris-HCl pH 7.8, 40 mM KCl, 8 mM MgCl2, 1 mM DTT, 0.02 mg/mL BSA, 48 h
# [10] = buffer (2) 20 mM Tris-HCl pH 7.8, 40 mM KCl, 8 mM MgCl2, 1 mM DTT, 0.02 mg/mL BSA, 72 h
substance,measurement,setting,value
"CTACCTGC–linker 1–[GRLRL]2–linker 2–AAGCACTTTG [miRNA-17-DC, Dual oligonucleotide-peptide conjugate targeted to miR-17: catalytic peptide [LRLRG]2 between two 2-aminoadenine-containing oligodeoxyribonucleotides]",Total Cleavage,miR-17; [1],0%
same,Total Cleavage,miR-17; [2],0%
same,Total Cleavage,miR-17; [3],1%
same,Total Cleavage,miR-17; [4],2%
same,Total Cleavage,miR-17; [5],5%
same,Total Cleavage,miR-17; [6],"1,5%"
same,Total Cleavage,miR-17; [7],4%
same,Total Cleavage,miR-17; [8],18%
same,Total Cleavage,miR-17; [9],32%
same,Total Cleavage,miR-17; [10],40%
same,rise of Kobs in buffer (2) compared to Kobs in buffer (1),miR-17,10 fold
"TATCTGC–linker 1–[GRLRL]2–linker 2–ATGCACCTTA [miRNA-18a-DC, Dual oligonucleotide-peptide conjugate targeted to miR-18a: catalytic peptide [LRLRG]2 between two 2-aminoadenine-containing oligodeoxyribonucleotides]",Total Cleavage,miR-18a; [1],0%
same,Total Cleavage,miR-18a; [2],1%
same,Total Cleavage,miR-18a; [3],3%
same,Total Cleavage,miR-18a; [4],7%
same,Total Cleavage,miR-18a; [5],8%
same,Total Cleavage,miR-18a; [6],"1,4%"
same,Total Cleavage,miR-18a; [7],5%
same,Total Cleavage,miR-18a; [8],19%
same,Total Cleavage,miR-18a; [9],23%
same,Total Cleavage,miR-18a; [10],37%
same,rise of Kobs in buffer (2) compared to Kobs in buffer (1),miR-18a,7 fold
"TCAACATC–linker 1–[GRLRL]2–linker 2–GATAAGCTA [miRNA-21-DC, Dual oligonucleotide-peptide conjugate targeted to miR-21: catalytic peptide [LRLRG]2 between two 2-aminoadenine-containing oligodeoxyribonucleotides]",Total Cleavage,miR-21; 2 h,4%
same,Total Cleavage,miR-21; 6 h,13%
same,Total Cleavage,miR-21; 24 h,30%
same,Total Cleavage,miR-21; 48 h,30%
same,Total Cleavage,miR-21; 72 h,34%
